Measurements reported in patent US8846849B2, “Tissue sealants from plasma derived proteins” (Ethicon, Inc., priority 2011, dated 2014).

Tests used:
[1] = biological target: T1, fibrinogen (BAC-2) solution (Homo sapiens, UniProt P02671+P02675+P02679); assay: Qualitative rate of gelation of BAC-2 (fibrinogen) solution with active ester cross-linker; settings: weight ratio cross-linker to fibrinogen 1:1, fibrinogen approx. 70 mg/ml, room temperature
T1 construct: Powdered BAC-2, a blood plasma derived product was obtained from Omrix BioPharmaceuticals; purchased Omrix BioPharmaceuticals; host or cells: blood plasma
T1 sequence (P02671 20-629 limits assumed): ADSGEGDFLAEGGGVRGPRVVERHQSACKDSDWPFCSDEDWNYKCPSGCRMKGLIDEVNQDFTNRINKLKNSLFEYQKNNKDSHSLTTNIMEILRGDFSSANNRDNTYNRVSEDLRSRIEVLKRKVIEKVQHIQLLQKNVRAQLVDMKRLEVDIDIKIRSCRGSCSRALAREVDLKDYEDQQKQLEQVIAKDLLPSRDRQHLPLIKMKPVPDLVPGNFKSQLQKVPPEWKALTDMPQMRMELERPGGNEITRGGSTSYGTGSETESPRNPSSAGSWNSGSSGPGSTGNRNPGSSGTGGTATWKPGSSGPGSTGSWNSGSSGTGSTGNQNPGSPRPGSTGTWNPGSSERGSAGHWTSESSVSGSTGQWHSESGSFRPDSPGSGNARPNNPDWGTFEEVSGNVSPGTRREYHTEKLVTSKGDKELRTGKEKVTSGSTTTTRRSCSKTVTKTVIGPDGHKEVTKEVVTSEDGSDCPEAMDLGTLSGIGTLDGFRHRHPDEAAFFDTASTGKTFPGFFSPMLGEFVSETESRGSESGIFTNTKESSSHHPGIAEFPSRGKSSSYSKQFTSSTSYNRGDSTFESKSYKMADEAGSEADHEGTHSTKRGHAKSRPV
T1 sequence (P02675 31-491): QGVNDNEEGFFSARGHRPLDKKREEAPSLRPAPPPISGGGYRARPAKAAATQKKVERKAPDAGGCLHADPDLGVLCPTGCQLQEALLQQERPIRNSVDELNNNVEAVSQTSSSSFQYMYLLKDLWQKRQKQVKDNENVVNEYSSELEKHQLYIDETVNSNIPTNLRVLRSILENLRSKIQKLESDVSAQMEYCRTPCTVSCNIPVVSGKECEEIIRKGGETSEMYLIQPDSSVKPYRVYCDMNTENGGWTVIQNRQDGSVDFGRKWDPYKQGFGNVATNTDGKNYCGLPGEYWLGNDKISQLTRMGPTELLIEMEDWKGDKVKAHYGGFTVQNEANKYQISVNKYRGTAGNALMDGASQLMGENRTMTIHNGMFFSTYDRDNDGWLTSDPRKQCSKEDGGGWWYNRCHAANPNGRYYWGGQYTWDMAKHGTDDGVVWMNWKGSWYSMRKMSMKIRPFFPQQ
T1 sequence (P02679 27-433 limits assumed): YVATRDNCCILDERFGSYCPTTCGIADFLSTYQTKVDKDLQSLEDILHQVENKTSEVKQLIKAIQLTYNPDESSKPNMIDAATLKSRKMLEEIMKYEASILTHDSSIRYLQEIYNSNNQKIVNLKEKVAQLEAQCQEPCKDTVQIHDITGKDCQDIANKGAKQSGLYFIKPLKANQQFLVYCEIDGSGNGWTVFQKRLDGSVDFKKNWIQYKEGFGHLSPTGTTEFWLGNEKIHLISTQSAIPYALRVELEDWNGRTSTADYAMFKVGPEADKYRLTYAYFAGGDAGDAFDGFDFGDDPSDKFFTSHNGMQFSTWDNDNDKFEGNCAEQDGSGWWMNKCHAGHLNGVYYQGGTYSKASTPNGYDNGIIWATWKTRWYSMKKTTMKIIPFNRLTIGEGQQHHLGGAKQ
Procedure: Sealants based on the inventive compositions were prepared by using an aqueous solution of BAC-2 (about 7% fibrinogen, or 70 mg/ml) where the crosslinking agent in the form of a powder was added at a selected composition and mixed well for 1 to 2 minutes up to gellation.
Crosslinking agents A, B, C correspond to the instant invention, while D and E correspond to control groups. The solid NHS ester, preferably in a powder form, was added to the BAC-2 solution at room temperature in a test tube at a weight ratio of 1 to 1 for active ester to fibrinogen, and mixed well. The time for gelation, defined qualitatively as the point when the BAC-2 solution in the test tube no longer flowed, was noted and recorded as shown in Table 2.
Sealants were prepared using an aqueous solution of fibrinogen (about 7% solution), where powder of either T-DG-N or PEG-DG-N was added at a selected composition based on the fibrinogen content. […] The in vitro rate of degradation of the hydrogel (or sealant) was determined in an enzymatic medium of plasmin at a concentration of 3.3 microgram/ml by determining the % clot remaining by gravimetric method after a given duration of exposure.

[2] = Hydrolysis of NHS active esters in D2O monitored by NMR; assay type: physicochemical; settings: in D2O at 25° C.; for Estimated Time for 95% Hydrolysis / Estimated Time for 10% Hydrolysis: NMR; for k = Constant in % Hydrolysis, y = k Exp(−mx) / m = Relative Rate in % Hydrolysis, y = k Exp(−mx): x = Time
Procedure: The relative reactivity of the active esters was determined by monitoring the rate of hydrolytic degradation in D2O at room temperature by NMR as shown in FIG. 4.
Various NHS active esters shown in FIG. 4 are the 4-Arm-TKHEED-Diglycolate-NHS (T-Dig-NHS or T-DG-N), the 4-Arm-Quadrol-Diglycolate-NHS (Q-Dig-NHS or Q-DG-N), the 4-Arm-PEG-Diglycolate-NHS (PEG-Dig-NHS or PEG-DG-N), the 4-Arm-TKHEED-Glutarate-NHS (T-Glut-NHS or T-Glut-N), and the 2-Arm-PEG-Diacid-NHS (PEG-NHS). It was observed that diglycolate-containing esters are the fastest hydrolyzing active esters, meaning to hydrolyze more than 95% in about 30 to 60 minutes irrespective of the core structure. […] These compounds appear to hydrolyze only about 10% or less in about 80 to 100 minutes.
Hydrolysis degradation parameters are summarized in Table 1 qualitatively from the chart in FIG. 4. It is observed that the Relative Rate, m, (in the exponential equation) for all the Diglycolate-NHS esters are within about 20% of each other. However, the rates are much faster than the others; for example, T-Dig-NHS (or T-DG-N) is 144 times faster than T-Glut-NHS, and 98 times faster than PEG-NHS. The degradation profiles of cross-linker A (T-DG-NHS), B (Q-Dig-NHS) and C (PEG-Dig-NHS) correspond to the instant invention, while the crosslinking agent D (T-Glut-NHS) and E (PEG-NHS) correspond to control groups.

[3] = Water solubility of diglycolate-NHS esters; assay type: physicochemical
[4] = Hydrolytic degradation of sealant in de-ionized water at 37° C. by pH profiling; assay type: physicochemical; settings: deionized water 37° C., constant pH 7.4
Procedure: Sealant with ester links undergoing hydrolytic degradation in PBS at 37° C. was evaluated by the % weight loss method. Sealant degradation in de-ionized (DI) water causes the pH level of the solution to […], which can be titrated by addition of a basic compound to maintain a constant pH of 7.4 at 37° C. until such time that no more basic compound was needed to maintain a neutral solution; the total time for titration was noted.
As the Diglycolate-NHS/BAC-2 system is a hydrogel of fibrinogen with ester based cross-links, its degradation was followed in the pH profiler of de-ionized water at 37° C., where a base was added to neutralize the acid formed upon ester hydrolysis with time, to maintain a constant neutral pH. Cross-linker weight % was varied based on fibrinogen content.

Qualitative observation of Gelation [1] [min] | Estimated Time for 95% Hydrolysis [2] [min] | water solubility [3] | Longevity of sealant, Avg. ([4]; NHS cross-linker 30 wt % based on fibrinogen) [days] | Longevity of sealant, Avg. ([4]; NHS cross-linker 50 wt % based on fibrinogen) [days] | Longevity of sealant, Avg. ([4]; NHS cross-linker 60 wt % based on fibrinogen) [days] | Molecule | k = Constant in % Hydrolysis, y = k Exp(−mx) [2] | m = Relative Rate in % Hydrolysis, y = k Exp(−mx) [2] | Estimated Time for 10% Hydrolysis [2] [min] | hydrolysis rate, times faster than PEG-NHS [2] [times] | hydrolysis rate, times faster than T-Glut-NHS [2] [times]
1 to 2 | 60 | about 25% |  |  |  | 4-Arm-Quadrol-Diglycolate-NHS [Q-DG-N] | 107 | 0.084 |  |  | 
15 to 30 |  |  |  |  |  | O=C(CCOCCOCCOCCOCCOCCOCCOCCOCCOCCC(=O)ON1C(=O)CCC1=O)ON1C(=O)CCC1=O [PEG-NHS, Bis-dPEG(9)-NHS ester, reference compound] | 98 | 0.00106 | 80 |  | 
1 to 2 | 30 | more than 85% | 2.7 | 7.1 | 16.7 | O=C(COCC(=O)ON1C(=O)CCC1=O)OCCN(CCOC(=O)COCC(=O)ON1C(=O)CCC1=O)CCN(CCOC(=O)COCC(=O)ON1C(=O)CCC1=O)CCOC(=O)COCC(=O)ON1C(=O)CCC1=O [T-DG-N, 4-Arm TKHEED-tetra Diglycolate-tetra-NHS ester] | 62 | 0.104 |  | 98 | 144

Molecule | Qualitative observation of Gelation [1] [min] | Estimated Time for 95% Hydrolysis [2] [min] | water solubility [3] | Longevity of sealant, Avg. ([4]; NHS cross-linker 30 wt % based on fibrinogen) [days] | Longevity of sealant, Avg. ([4]; NHS cross-linker 50 wt % based on fibrinogen) [days] | Longevity of sealant, Avg. ([4]; NHS cross-linker 60 wt % based on fibrinogen) [days] | k = Constant in % Hydrolysis, y = k Exp(−mx) [2] | m = Relative Rate in % Hydrolysis, y = k Exp(−mx) [2] | Estimated Time for 10% Hydrolysis [2] [min] | hydrolysis rate, times faster than PEG-NHS [2] [times] | hydrolysis rate, times faster than T-Glut-NHS [2] [times]
4-Arm-TKHEED-Glutarate-NHS [T-Glut-NHS, reference compound] | 30 to 60 |  |  |  |  |  | 65 | 0.00072 | 100 |  | 
